Patent US20260151398A1, “COMPOUNDS FOR REDUCING CHOLESTEROL AND TREATING LIVER AND KIDNEY DISEASE” (McMaster University, priority 2021, published 2026)
Entries after “also recorded” stand apart in the source; their conditions may differ.

Tests used:
total secreted protein = experiment: Coomassie stain of medium for total secreted protein; assay type: cell-based; conditions: Coomassie stain of medium of CF-treated cells
Experimental: Cultured immortalized hepatocytes known to express and secrete PCSK9 (Lebeau, P., et al., 2017), including HuH7 and HepG2 cells, as well as primary mouse- and human-hepatocytes (PMH and PHH, respectively), were treated with CF for 24 h and assessed for PCSK9 expression via immunoblots and real-time PCR (FIG. 1 A to D). […] Given that sterol deprivation represents another well-established promoter of SREBP2 activation (Lebeau, P., et al., 2017), cells were also treated with CF in the presence and absence of U18666A (U18) that depletes intracellular sterols. […] Next, HepG2 cells were treated with an increasing dose of CF.

[1] = system: HMGR, SREBP1, hepatocyte nuclear factor 1α; experiment: mRNA expression of HMGR, SREBP1 and hepatocyte nuclear factor 1α in hepatocytes; assay type: cell-based, mouse
Experimental: RNA purification/isolation was performed using RNeasy mini kits (Qiagen) and normalized to 2 μg RNA using a NanoDrop® spectrophotometer. Samples were then reverse transcribed into cDNA using Superscript Vilo cDNA Synthesis kit (Thermofisher Scientific). Real-time PCR was executed with Fast SYBR Green (Thermo Fisher Scientific) using the ΔΔct method on the ViiA7 real-time PCR platform (Thermofisher Scientific).
Therefore, the effect of CF on TG-; induced SREBP2 activation was examined. […] SREBP2 activity was then examined at the protein level in HuH7 cells transfected with a plasmid encoding GFP driven by the sterol regulatory element (SRE-GFP; FIG. 2E to G). […] GFP expression was also visualized via immunofluorescent staining and quantified using ImageJ Software.

AMPK = AMPK phosphorylation in livers of CF-treated mice; assay type: in vivo, mouse; conditions: C57BL/6J mice, CF 100 mg/kg, 8 hours
Experimental: All animal studies were carried out in 8 h-fasted male wild-type, Pcsk9^−/− or Ampkβ1^−/− mice on the C57BL/6J background. CF (25-100 mg/kg-8 h) and CDN (50 mg/kg) treatments were administered via intraperitoneal injection unless specified otherwise. Primary mouse hepatocytes were isolated using a two-step process with EGTA ([…] in HEPES buffer, Sigma Aldrich) and collagenase (0.05% in HEPES buffer, Sigma Aldrich) in 12-week-old male mice on the C57BL/6J background. Cells were then washed, centrifuged, and plated following isolation in cell strainers. Hepatosure® 100-donor pooled primary human hepatocytes were purchased from Xenotech. Primary hepatocytes were regularly grown in William's E medium (Gibco, Thermo Fisher Scientific) containing 10% fetal bovine serum, 100 IU/ml penicillin, and 100 µg/ml streptomycin.
Previous studies have also shown that CF can promote the phosphorylation and activation of AMPK (Quan, H. Y., et al., 2013; Tsuda, S., et al., 2015), a liver-expressed kinase known to induce the inhibitory phosphorylation of SREBP1c (Li, Y., et al., 2011). […] Primary mouse hepatocytes were then isolated from wildtype (WT) and Ampkβ1−/− mice (Dzamko, N., et al., 2010).

cytosolic Ca^2+ levels = experiment: Cytosolic Ca2+ in hepatocytes (Fura-2-AM); assay type: cell-based, human; conditions: immortalized HuH7 hepatocytes, listed as CF
Experimental: Intracellular Ca^2+ in Huh7 and HepG2 cells was measured using a high-affinity Ca^2+ indicator, Fura-2-AM (Thermofisher Scientific). ER Ca^2+ levels were assessed using the low-affinity Ca^2+ indicator, Mag-Fluo-4, and via transfection of cells with D1ER. The D1ER plasmid encodes an ER-resident calcium binding protein linked to a fluorescent protein and increases in fluorescence intensity upon Ca^2+ binding (7). […] Cells were then washed and incubated with Fura-2-AM (2 μM) or Mag-Fluo-4 (2 μM) for 45 minutes at 37° C. in HBSS containing 20 mM HEPES and 2% pluronic acid v/v (Thermofisher Scientific).
To test this hypothesis, cytosolic Ca^2+ levels in CF-treated cells were first examined using the high-affinity fluorescent Ca^2+ indicator, Fura-2-AM. […] The fluorescence intensity of cells treated with CF and control agents, TG and CDN, was assessed using a fluorescent spectrophotometer and visualized using a fluorescent microscope (FIG. 6 A). […] ER Ca^2+ content was also assessed indirectly with the high affinity Ca^2+ dye, fura-2-AM (FIG. 6 B).

HepG2 cells = experiment: DiI-LDL uptake assay in HepG2 cells; assay type: cell-based, human
Experimental: During the last 5 h of treatment (h 19 to 24) cells were exposed to DiI-LDL (10 μg/ml) and then washed with two changes of pre-warmed (37° C.) HBSS containing 20 mM HEPES prior to analysis.
The uptake and accumulation of DiI-LDL was then quantified using a fluorescent spectrophotometer (Molecular Devices). […] Live-cell staining of the LDLR was also performed in HepG2 cells exposed to DiI-LDL (FIG. 11 D).

HepG2 hepatocytes = experiment: LDH cytotoxicity assay in HepG2 hepatocytes; assay type: cell-based, human; conditions: cultured HepG2 hepatocytes
Experimental: Secreted PCSK9 levels were assessed using ELISAs and mRNA transcript via real-time PCR. […] Secreted PCSK9, as well as PCSK9 mRNA and SREBP2 mRNA were assessed in these cells. (E) The cytotoxicity of these agents was examined using an LDH assay. […] (G) The uptake of DiI-LDL was also quantified in these cells using a spectrophotometer. Values are presented as the mean and error bars as SD. *, p<0.05 vs. vehicle; NS, non-significant.

With `Cn1c(=O)c2c(ncn2C)n(C)c1=O` [caffeine, 1,3,7-Trimethylxanthine] the global protein secretion (total secreted protein) was “not affecting global protein secretion”, the SREBP1 expression ([1]; PMH) was “blocked the expression” and the “hepatocyte nuclear factor 1α expression” value ([1]; absence of TG) was “did not yield a significant difference”. The HMGR expression ([1]; mouse hepatocytes) was “blocked the expression”, the “phosphorylation of AMPK (pAMPK) and pACC in liver” value (AMPK) was “induced the phosphorylation and activation of AMPK” and the “cytosolic Ca^2+ levels” value (cytosolic Ca^2+ levels) was “significantly increased cytosolic Ca^2+ levels; also recorded: increases cytosolic Ca^2+ levels”. The “LDLc (DiI-LDL) uptake” value (HepG2 cells; HepG2, 24 h treatment, DiI-LDL 5 h) was “increased LDLc uptake”, the “LDLc uptake in PCSK9 shRNA cells” value (HepG2 cells; HepG2 stably transfected with PCSK9 shRNA, CF 200 μM) was “failed to significantly increase LDLc uptake” and the “cytotoxicity (LDH assay)” value (HepG2 hepatocytes) was “did not exhibit cytotoxic properties”.
